Values after ≈ are worked out from the molar mass of the structure shown.
Experiments:
Trichophyton benhamiae = experiment: In vitro antifungal activity against human pathogenic fungi, Trichophyton mentagrophytes; type: functional, Arthroderma benhamiae
Cryptococcus neoformans = experiment: In vitro antifungal activity against human pathogenic fungi, Cryptococcus neoformans; type: functional
Candida albicans = experiment: In vitro antifungal activity against human pathogenic fungi, Candida albicans; type: functional
Aspergillus fumigatus = experiment: In vitro antifungal activity against human pathogenic fungi, Aspergillus fumigatus; type: functional
Sporothrix schenckii = experiment: In vitro antifungal activity against human pathogenic fungi, Sporothrix schenck ii; type: functional

Row | SMILES | MIC (Trichophyton benhamiae) [µg/mL] | MIC (Cryptococcus neoformans) [µg/mL] | MIC (Candida albicans) [µg/mL] | MIC (Aspergillus fumigatus) [µg/mL] | MIC (Sporothrix schenckii) [µg/mL]
1 | COc1ccc(-c2nc(SC)nc(Nc3ccc(Cl)cc3)c2C#N)cc1 | > 100 | > 100 | > 100 | > 100 | > 100
2 | CSc1nc(Cl)c(C#N)c(-c2ccc(F)cc2)n1 | 0.09 (≈ 0.322 µM) | 50 (≈ 179 µM) | > 100 | 0.04 (≈ 0.143 µM) | > 100
3 | CSc1nc(Cl)c(C#N)c(-c2cccc(Cl)c2)n1 | 0.39 (≈ 1.32 µM) | 1.56 (≈ 5.27 µM) | > 100 | 0.09 (≈ 0.304 µM) | > 100
4 | CSc1nc(SCc2ccccc2)nc(Cl)c1C#N | 0.19 (≈ 0.617 µM) | 6.25 (≈ 20.3 µM) | 50 (≈ 162 µM) | 0.78 (≈ 2.53 µM) | 50 (≈ 162 µM)
5 | CSc1nc(Nc2ccc(Cl)cc2)c(C#N)c(-c2ccc(F)cc2)n1 | > 100 | > 100 | > 100 | > 100 | > 100
6 | CSc1nc(Nc2ccc(Cl)cc2)c(C#N)c(-c2cccc(F)c2)n1 | > 100 | > 100 | > 100 | > 100 | > 100
7 | CCc1nc(Cl)c(C#N)c(SC)n1 | 1.56 (≈ 7.3 µM) | 1.56 (≈ 7.3 µM) | 25 (≈ 117 µM) | 6.25 (≈ 29.2 µM) | 12.5 (≈ 58.5 µM)
8 | CSc1nc(Cl)c(C#N)c(SC)n1 | 0.005 (≈ 0.0216 µM) | 1.56 (≈ 6.73 µM) | > 100 | 0.002 (≈ 0.00863 µM) | 50 (≈ 216 µM)
9 | CSc1ncnc(Cl)c1C#N | 0.39 (≈ 2.1 µM) | 1.56 (≈ 8.4 µM) | 25 (≈ 135 µM) | 0.39 (≈ 2.1 µM) | 6.25 (≈ 33.7 µM)
10 | CSc1nc(Cl)c(C#N)c(-c2cccc(F)c2)n1 | 0.09 (≈ 0.322 µM) | 50 (≈ 179 µM) | > 100 | 0.09 (≈ 0.322 µM) | > 100
11 | CC(=O)N1CCN(c2ccc(OC[C@H]3CO[C@](Cn4ccnc4)(c4ccc(Cl)cc4Cl)O3)cc2)CC1 [KETOCONAZOLE] | 0.1 (≈ 0.188 µM) | 0.1 (≈ 0.188 µM) | 0.3 (≈ 0.565 µM) | 0.7 (≈ 1.32 µM) | 25 (≈ 47 µM)
12 | COc1ccc(-c2nc(SC)nc(Cl)c2C#N)cc1 | 50 (≈ 171 µM) | > 100 | > 100 | 50 (≈ 171 µM) | > 100
13 | CSc1nc(S)c(C#N)c(-c2cccc(F)c2)n1 | > 100 | > 100 | > 100 | > 100 | > 100
14 | CSc1nc(Cl)c(C#N)c(-c2ccc(Cl)cc2)n1 | 0.19 (≈ 0.641 µM) | > 100 | > 100 | 0.04 (≈ 0.135 µM) | > 100
15 | C[C@@H]1[C@H](O)[C@@H](C)/C=C/C=C/C=C/C=C/C=C/C=C/C=C/[C@H](O[C@@H]2O[C@H](C)[C@@H](O)[C@H](N)[C@@H]2O)C[C@@H]2O[C@](O)(C[C@@H](O)C[C@@H](O)[C@H](O)CC[C@@H](O)C[C@@H](O)CC(=O)O[C@H]1C)C[C@H](O)[C@H]2C(=O)O [AMPHOTERICIN B] | 0.005 (≈ 0.00541 µM) |  |  | 0.002 (≈ 0.00216 µM) | 
16 | CSc1nc(-c2ccccc2)nc(Cl)c1C#N | 12.5 (≈ 47.8 µM) | > 100 | > 100 | 0.02 (≈ 0.0764 µM) | > 100
17 | CCSc1nc(Cl)c(C#N)c(-c2cccc(F)c2)n1 | 0.39 (≈ 1.33 µM) | 3.12 (≈ 10.6 µM) | > 100 | 1.56 (≈ 5.31 µM) | 50 (≈ 170 µM)
